This is an account of results in patent EP4810052A2, “HCRHR2 SELECTIVE POLYPEPTIDES” (Gubra A/S, priority 2023, dated 2026).

One assay concerns the target T1, hCRHR2 (Homo sapiens, UniProt Q13324).
T1 sequence (Q13324 1-411): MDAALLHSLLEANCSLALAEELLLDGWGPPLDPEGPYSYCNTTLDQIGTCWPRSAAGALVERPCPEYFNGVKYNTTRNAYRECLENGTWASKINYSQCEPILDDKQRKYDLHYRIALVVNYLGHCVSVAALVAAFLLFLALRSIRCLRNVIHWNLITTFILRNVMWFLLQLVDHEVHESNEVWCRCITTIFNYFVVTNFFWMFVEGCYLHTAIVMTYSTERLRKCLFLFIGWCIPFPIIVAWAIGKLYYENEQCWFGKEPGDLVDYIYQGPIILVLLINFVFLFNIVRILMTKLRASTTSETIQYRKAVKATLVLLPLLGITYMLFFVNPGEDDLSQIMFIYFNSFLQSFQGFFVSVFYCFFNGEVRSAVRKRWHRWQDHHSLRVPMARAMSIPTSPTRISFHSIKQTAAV
As to the kind of experiment: HTRF cAMP assay, determination of hCRHR2 potency (peptide libraries 5 conc., purified peptides 11 conc.). The class given is cell-based. The method in brief:
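Frozen stocks of hCRHR2-expressing CHO-K1 cells, thawed just before testing, received peptide agonists in suspension; cAMP quantified by competitive HTRF immunoassay, with curves fitted by nonlinear regression (variable slope) for EC50.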
A general note: Time-resolved FRET reads energy transfer from a long-lived donor to a nearby acceptor.

In the next assay the target is T2, hCRHR1 (Homo sapiens, UniProt P34998).
T2 sequence (P34998 24-415): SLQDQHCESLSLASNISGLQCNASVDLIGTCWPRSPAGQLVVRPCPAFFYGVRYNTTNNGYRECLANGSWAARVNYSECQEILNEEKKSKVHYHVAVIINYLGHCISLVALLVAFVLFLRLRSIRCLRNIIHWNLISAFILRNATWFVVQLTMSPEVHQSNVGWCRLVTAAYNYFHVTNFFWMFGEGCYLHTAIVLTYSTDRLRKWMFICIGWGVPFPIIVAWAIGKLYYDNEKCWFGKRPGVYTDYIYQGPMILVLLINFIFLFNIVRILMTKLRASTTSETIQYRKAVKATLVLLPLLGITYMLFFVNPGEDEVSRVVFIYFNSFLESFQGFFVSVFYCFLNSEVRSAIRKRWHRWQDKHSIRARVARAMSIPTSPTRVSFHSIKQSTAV
As to the kind of experiment: HTRF cAMP assay, determination of hCRHR1 potency (peptide libraries 5 conc., purified peptides 11 conc.). The class given is cell-based. The method, boiled down:
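Cellular cAMP was read by time-resolved FRET between d2-labelled cAMP and cryptate anti-cAMP antibody. The cells were freshly thawed suspension CHO-K1 cells stably expressing human CRHR1.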

[1] abbreviates: Table 3, matched molecular pairs X^38 L vs Nle, peptide library of Example 4, read-out: hCRHR2 pEC50 (converted).
The mark [2] stands for this setting: Table 3, matched molecular pairs X^38 L vs Nle, peptide library of Example 4, read-out: hCRHR1 pEC50 (converted).
Where [3] appears, read: library peptides, matched molecular pairs L vs Nle in position X^38, read-out: Potency hCRHR2 pEC50 (converted).
Where [4] appears, read: library peptides, matched molecular pairs L vs Nle in position X^38, read-out: Potency hCRHR1 pEC50 (converted).

Read-outs that look alike come from different tables or passages of the source. Starred links: 1 amine or outer side, 2 acyl side, 3 side chain; linkers in the order of their positions; H or OH if unused. Non-standard residues stand in square brackets, D forms with d. Residues, ends and D or L forms follow the SMILES beside them. Groups on a side chain read outwards from the residue. *: point of attachment. C20 diacid = O=C(O)CCCCCCCCCCCCCCCCCCC(=O)*; Pro(cis-4-F) = O=C(O)[C@@H]1C[C@H](F)CN1; γGlu = O=C(O)[C@H](CCC(=O)[*:2])N[*:1]; NMeI = CC[C@H](C)[C@H](NC)C(=O)O; Nle = CCCC[C@H](N)C(=O)O; AEEA = NCCOCCOCC(=O)O; Aib = CC(C)(N)C(=O)O

On to `CCCC[C@H](NC(=O)[C@@H](NC(=O)[C@H](CCC(=O)O)NC(=O)[C@H](C)NC(=O)[C@H](CC(N)=O)NC(=O)C(C)(C)NC(=O)[C@H](CCCCNC(=O)COCCOCCNC(=O)COCCOCCNC(=O)CC[C@H](NC(=O)CC[C@H](NC(=O)CCCCCCCCCCCCCCCCCCC(=O)O)C(=O)O)C(=O)O)NC(=O)[C@H](C)NC(=O)[C@H](CCC(N)=O)NC(=O)[C@H](CCC(=O)O)NC(=O)[C@H](CCCNC(=N)N)NC(=O)[C@H](C)NC(=O)[C@H](C)NC(=O)[C@H](CCCNC(=N)N)NC(=O)[C@H](C)NC(=O)[C@H](CCCNC(=N)N)NC(=O)[C@H](C)NC(=O)[C@H](CCC(N)=O)NC(=O)[C@H](Cc1c[nH]cn1)NC(=O)[C@H](CC(C)C)NC(=O)[C@H](CC(C)C)NC(=O)[C@@H](NC(=O)[C@H](CCC(N)=O)NC(=O)[C@H](CC(C)C)NC(=O)[C@H](CC(C)C)NC(=O)CNC(=O)[C@@H](NC(=O)[C@@H]1CCCN1C(=O)[C@@H](NC(=O)[C@H](CC(=O)O)NC(=O)[C@H](CC(C)C)NC(=O)[C@H](CO)NC(=O)[C@H](CC(C)C)NC(=O)[C@@H](NC(=O)[C@@H](NC)[C@@H](C)CC)C(C)C)C(C)C)[C@@H](C)CC)[C@@H](C)CC)[C@@H](C)CC)C(=O)N[C@@H](C)C(=O)N[C@@H](CCC(=O)O)C(=O)N[C@H](C(N)=O)C(C)C` [compound 126] (H-[NMeI]VLSLDVPIGLLQILLHQARARAAREQAK([AEEA-AEEA-γGlu-γGlu-C20 diacid])[Aib]NAEI[Nle]AEV-NH2), for which the EC50 was 0.01 nM at hCRHR2 (Table 4, library peptides having X^38 = Nle, read-out: hCRHR2 pEC50 (converted)) and 794 nM on hCRHR1 (Table 4, library peptides having X^38 = Nle, read-out: hCRHR1 pEC50 (converted)).
Turning to `CC[C@H](C)[C@H](N)C(=O)N[C@H](C(=O)N[C@@H](CC(C)C)C(=O)N[C@@H](CO)C(=O)N[C@@H](CC(C)C)C(=O)N[C@@H](CC(=O)O)C(=O)N[C@H](C(=O)N1CCC[C@H]1C(=O)N[C@H](C(=O)NCC(=O)N[C@@H](CC(C)C)C(=O)N[C@@H](CC(C)C)C(=O)N[C@@H](CCC(N)=O)C(=O)N[C@H](C(=O)N[C@@H](CC(C)C)C(=O)N[C@@H](CC(C)C)C(=O)N[C@@H](CCC(=O)O)C(=O)N[C@@H](CCC(N)=O)C(=O)N[C@@H](C)C(=O)N[C@@H](CCCNC(=N)N)C(=O)N[C@@H](C)C(=O)N[C@@H](CCC(=O)O)C(=O)N[C@@H](CO)C(=O)N[C@@H](C)C(=O)N[C@@H](CCCNC(=N)N)C(=O)N[C@@H](CCC(=O)O)C(=O)N[C@@H](CCCNC(=N)N)C(=O)N[C@@H](C)C(=O)N[C@@H](CCCCNC(=O)COCCOCCNC(=O)COCCOCCNC(=O)CC[C@H](NC(=O)CC[C@H](NC(=O)CCCCCCCCCCCCCCCCCCC(=O)O)C(=O)O)C(=O)O)C(=O)N[C@H](C(=O)N[C@@H](CC(N)=O)C(=O)N[C@@H](C)C(=O)N[C@@H](CCC(=O)O)C(=O)N[C@H](C(=O)N[C@@H](CC(C)C)C(=O)N[C@@H](C)C(=O)N[C@@H](CCC(=O)O)C(=O)N[C@H](C(N)=O)[C@@H](C)CC)[C@@H](C)CC)[C@@H](C)O)[C@@H](C)CC)[C@@H](C)CC)C(C)C)C(C)C` [SEQ ID NO: 21] (H-IVLSLDVPIGLLQILLEQARAESARERAK([AEEA-AEEA-γGlu-γGlu-C20 diacid])TNAEILAEI-NH2), the results for the EC50 at hCRHR2 (setting [1]) and at hCRHR1 (setting [2]) were 0.794 nM and 63100 nM, respectively.
Take `CCCC[C@H](NC(=O)[C@@H](NC(=O)[C@H](CCC(=O)O)NC(=O)[C@H](C)NC(=O)[C@H](CC(N)=O)NC(=O)[C@@H](NC(=O)[C@H](CCCCNC(=O)COCCOCCNC(=O)COCCOCCNC(=O)CC[C@H](NC(=O)CC[C@H](NC(=O)CCCCCCCCCCCCCCCCCCC(=O)O)C(=O)O)C(=O)O)NC(=O)[C@H](C)NC(=O)[C@H](CCC(N)=O)NC(=O)[C@H](CCC(=O)O)NC(=O)[C@H](CCCNC(=N)N)NC(=O)[C@H](C)NC(=O)[C@H](C)NC(=O)[C@H](CCCNC(=N)N)NC(=O)[C@H](C)NC(=O)[C@H](CCCNC(=N)N)NC(=O)[C@H](C)NC(=O)[C@H](CCC(N)=O)NC(=O)[C@@H](NC(=O)[C@H](CC(C)C)NC(=O)[C@H](CC(C)C)NC(=O)[C@@H](NC(=O)[C@H](CCC(N)=O)NC(=O)[C@H](CC(C)C)NC(=O)[C@H](CC(C)C)NC(=O)CNC(=O)[C@@H](NC(=O)[C@@H]1C[C@H](F)CN1C(=O)[C@@H](NC(=O)[C@H](CC(=O)O)NC(=O)[C@H](CC(C)C)NC(=O)[C@H](CO)NC(=O)[C@H](CC(C)C)NC(=O)[C@@H](NC(=O)[C@@H](N)[C@@H](C)CC)C(C)C)C(C)C)[C@@H](C)CC)[C@@H](C)CC)[C@@H](C)O)[C@@H](C)O)[C@@H](C)CC)C(=O)N[C@@H](C)C(=O)N[C@@H](CCC(=O)O)C(=O)N[C@H](C(N)=O)C(C)C` [compound 81] (H-IVLSLDV[Pro(cis-4-F)]IGLLQILLTQARARAAREQAK([AEEA-AEEA-γGlu-γGlu-C20 diacid])TNAEI[Nle]AEV-NH2): the EC50 was 0.2 nM on hCRHR2 (setting [3]) and 398000 nM at hCRHR1 (setting [4]).
Consider `CC[C@H](C)[C@H](N)C(=O)N[C@H](C(=O)N[C@@H](CC(C)C)C(=O)N[C@@H](CO)C(=O)N[C@@H](CC(C)C)C(=O)N[C@@H](CC(=O)O)C(=O)N[C@H](C(=O)N1CCC[C@H]1C(=O)N[C@H](C(=O)NCC(=O)N[C@@H](CC(C)C)C(=O)N[C@@H](CC(C)C)C(=O)N[C@@H](CCC(N)=O)C(=O)N[C@H](C(=O)N[C@@H](CC(C)C)C(=O)N[C@@H](CC(C)C)C(=O)N[C@@H](CCC(=O)O)C(=O)N[C@@H](CCC(N)=O)C(=O)N[C@@H](C)C(=O)N[C@@H](CCCNC(=N)N)C(=O)N[C@@H](C)C(=O)N[C@@H](CCC(=O)O)C(=O)N[C@@H](C)C(=O)N[C@@H](C)C(=O)N[C@@H](CCCNC(=N)N)C(=O)N[C@@H](CCC(=O)O)C(=O)N[C@@H](CCC(N)=O)C(=O)N[C@@H](C)C(=O)N[C@@H](CCCCNC(=O)COCCOCCNC(=O)COCCOCCNC(=O)CC[C@H](NC(=O)CC[C@H](NC(=O)CCCCCCCCCCCCCCCCCCC(=O)O)C(=O)O)C(=O)O)C(=O)N[C@H](C(=O)N[C@@H](CC(N)=O)C(=O)N[C@@H](C)C(=O)N[C@@H](CCC(=O)O)C(=O)N[C@H](C(=O)N[C@@H](CC(C)C)C(=O)N[C@@H](C)C(=O)N[C@@H](CCC(=O)O)C(=O)N[C@H](C(N)=O)C(C)C)[C@@H](C)CC)[C@@H](C)O)[C@@H](C)CC)[C@@H](C)CC)C(C)C)C(C)C` [SEQ ID NO: 25] (H-IVLSLDVPIGLLQILLEQARAEAAREQAK([AEEA-AEEA-γGlu-γGlu-C20 diacid])TNAEILAEV-NH2), for which the values for the EC50 at hCRHR2 (setting [1]) and on hCRHR1 (setting [2]) were 0.794 nM and 6310 nM, respectively.
As for `CC[C@H](C)[C@H](N)C(=O)N[C@H](C(=O)N[C@@H](CC(C)C)C(=O)N[C@@H](CO)C(=O)N[C@@H](CC(C)C)C(=O)N[C@@H](CC(=O)O)C(=O)N[C@H](C(=O)N1CCC[C@H]1C(=O)N[C@H](C(=O)NCC(=O)N[C@@H](CC(C)C)C(=O)N[C@@H](CC(C)C)C(=O)N[C@@H](CCC(N)=O)C(=O)N[C@H](C(=O)N[C@@H](CC(C)C)C(=O)N[C@@H](CC(C)C)C(=O)N[C@@H](CCC(=O)O)C(=O)N[C@@H](CCC(N)=O)C(=O)N[C@@H](C)C(=O)N[C@@H](CCCNC(=N)N)C(=O)N[C@@H](C)C(=O)N[C@@H](CCCNC(=N)N)C(=O)N[C@@H](C)C(=O)N[C@@H](CCC(N)=O)C(=O)N[C@@H](CCCNC(=N)N)C(=O)N[C@@H](CCC(=O)O)C(=O)N[C@@H](CCC(N)=O)C(=O)N[C@@H](C)C(=O)N[C@@H](CCCCNC(=O)COCCOCCNC(=O)COCCOCCNC(=O)CC[C@H](NC(=O)CC[C@H](NC(=O)CCCCCCCCCCCCCCCCCCC(=O)O)C(=O)O)C(=O)O)C(=O)N[C@H](C(=O)N[C@@H](CC(N)=O)C(=O)N[C@@H](C)C(=O)N[C@@H](CCC(=O)O)C(=O)N[C@H](C(=O)N[C@@H](CC(C)C)C(=O)N[C@@H](C)C(=O)N[C@@H](CCC(=O)O)C(=O)N[C@H](C(N)=O)C(C)C)[C@@H](C)CC)[C@@H](C)O)[C@@H](C)CC)[C@@H](C)CC)C(C)C)C(C)C` [compound 56] (H-IVLSLDVPIGLLQILLEQARARAQREQAK([AEEA-AEEA-γGlu-γGlu-C20 diacid])TNAEILAEV-NH2), the EC50 at hCRHR2 (setting [3]) is 0.398 nM; on hCRHR1 (setting [4]), 3160 nM.
